We go through eleven compounds from ChEMBL document CHEMBL1201862, “PubChem BioAssay data set” (2004).

Among the test systems are K562; U-251; NCI-H460; M14; SF-295; SK-MEL-2; SNB-19; NCI-H522; UACC-257; SK-MEL-5; OVCAR-8; UACC-62; SW-620; RPMI-8226; SN12C; A549; LOX IMVI; SNB-75; EKVX; OVCAR-4.
What all share (assay): inhibition of tumour cell growth, NCI panel, 48 h

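Assay format: 96-well plates, 48-hour exposure. GI50: concentration for 50% inhibition of growth.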 Active and inactive are the calls of the source. No stated cut-off is given here; in the data, active = GI50 up to about 1.1 µM and inactive = higher. Where a SMILES comes first, the peptide text is derived from it. The star is where a group is joined. Boc = CC(C)(C)OC(=O)*; OSu = O=C1CCC(=O)N1O*

In the case of `c1ccc(-c2nnn3c2NC2=C(CCCC2)C3c2ccccc2)cc1` (centres undefined), the GI50 was 10.3 µM (inactive) in the assay with K562; 12.5 µM (inactive) with U-251; 23.4 µM (inactive) with NCI-H460; 18.8 µM (inactive) with M14; 20.7 µM (inactive) in the assay on SF-295; 16.2 µM (inactive) with SK-MEL-2. Further, the GI50 with SNB-19 is 33.8 µM (inactive); in the assay on NCI-H522 it was 5.68 µM (inactive); in the assay on UACC-257, 21.2 µM (inactive); in the assay with SK-MEL-5 it was 14.2 µM (inactive); with OVCAR-8, 2.06 µM (inactive); in the assay on UACC-62, 16.4 µM (inactive). In addition, the GI50 with SW-620 was 12.5 µM (inactive); in the assay on RPMI-8226, 14.9 µM (inactive); with SN12C, 21.1 µM (inactive); in the assay on A549 it was 12.9 µM (inactive); with LOX IMVI, 13.7 µM (inactive).

Regarding `CCCCCCCCC(O)C#CC(N)=O` (centres undefined), the GI50 is 13.3 µM (inactive) in the assay with K562; 3.37 µM (inactive) with SNB-75; 8.34 µM (inactive) with U-251; 9.1 µM (inactive) with NCI-H460; 12.3 µM (inactive) in the assay with M14; 39 µM (inactive) with SF-295. The GI50 in the assay with SK-MEL-2 is 13.3 µM (inactive); with SNB-19, 11.8 µM (inactive); in the assay on UACC-257, 13 µM (inactive); in the assay with EKVX, 11.4 µM (inactive); in the assay with SK-MEL-5 it was 12 µM (inactive); in the assay on OVCAR-8 it was 9.42 µM (inactive). Also, the GI50 is 5.16 µM (inactive) in the assay on UACC-62; 2.51 µM (inactive) in the assay on OVCAR-4; 14.1 µM (inactive) in the assay on SW-620; 7.48 µM (inactive) in the assay with RPMI-8226; 7.59 µM (inactive) with SN12C; 14.7 µM (inactive) in the assay on A549. For the same compound, in the assay with LOX IMVI, the GI50 was 11.7 µM (inactive).

Take `CCCC(=O)n1[nH]c(=O)n(-c2ccc(Cl)cc2)c1=O`: the GI50 in the assay with K562, with SNB-75, with U-251, with NCI-H460, in the assay on M14 and with SF-295 was > 100 µM (inactive) in each case. For the same compound, the GI50 with SK-MEL-2, in the assay with SNB-19, in the assay on UACC-257, in the assay on EKVX, with SK-MEL-5 and in the assay on OVCAR-8 was > 100 µM (inactive) in each case. Moreover, the GI50 in the assay on UACC-62, in the assay with OVCAR-4, in the assay on SW-620, in the assay with RPMI-8226, in the assay with SN12C and in the assay with A549 was > 100 µM (inactive) each time. Besides, the GI50 with LOX IMVI is > 100 µM (inactive).

As for `CCOC(=O)C(C(=O)OCC)=C1C=C(c2ccccc2)c2ccccc21`, the GI50 was 36.6 µM (inactive) with K562; 45.7 µM (inactive) in the assay on SNB-75; 86.7 µM (inactive) in the assay with U-251; 31.8 µM (inactive) in the assay with NCI-H460; 35.9 µM (inactive) with M14; 31.2 µM (inactive) in the assay with SF-295. In addition, the GI50 in the assay on SK-MEL-2 is > 100 µM (inactive); in the assay on SNB-19, > 100 µM (inactive); with UACC-257 it was 73.1 µM (inactive); in the assay on EKVX it was > 100 µM (inactive); in the assay on SK-MEL-5 it was 31.1 µM (inactive); with OVCAR-8, > 100 µM (inactive). Further, the GI50 is > 100 µM (inactive) in the assay with UACC-62; 38.3 µM (inactive) with OVCAR-4; 89.3 µM (inactive) in the assay with SW-620; 16.6 µM (inactive) in the assay on RPMI-8226; > 100 µM (inactive) in the assay with SN12C; 79.3 µM (inactive) in the assay on A549. Besides, in the assay on LOX IMVI, the GI50 was 28.8 µM (inactive).

As to `Cc1nc2c(=O)n(C)ncc2[nH]1`, the GI50 in the assay with K562 is > 100 µM (inactive); in the assay with SNB-75, 22.6 µM (inactive); in the assay with U-251, > 100 µM (inactive); in the assay on NCI-H460, > 100 µM (inactive); in the assay with M14, > 100 µM (inactive); in the assay with SF-295, > 100 µM (inactive). For the same compound, the GI50 in the assay with SK-MEL-2, in the assay on SNB-19, in the assay on UACC-257, in the assay on EKVX, in the assay on SK-MEL-5 and in the assay with OVCAR-8 was > 100 µM (inactive) in each case. Besides, the GI50 with UACC-62, with SW-620, with RPMI-8226, with SN12C and in the assay with A549 was > 100 µM (inactive) in each case.

For the compound `O=C1C(Cl)=C(NCCN2CCOCC2)C(=O)c2c(O)ccc(O)c21`, the GI50 was 2.06 µM (inactive) in the assay on K562; 1.71 µM (inactive) with SNB-75; 2.21 µM (inactive) in the assay on U-251; 1.58 µM (inactive) with NCI-H460; 1.84 µM (inactive) in the assay on M14; 1.87 µM (inactive) in the assay on SF-295. For the same compound, the GI50 with SNB-19 was 1.81 µM (inactive); with UACC-257, 2.11 µM (inactive); with EKVX, 4.9 µM (inactive); with SK-MEL-5, 1.09 µM (active); with OVCAR-8, 3.25 µM (inactive); in the assay with UACC-62, 1.48 µM (inactive). The GI50 in the assay with OVCAR-4 is 1.72 µM (inactive); in the assay with SW-620, 1.33 µM (inactive); in the assay with SN12C, 1.79 µM (inactive); in the assay on A549, 2.12 µM (inactive); in the assay on LOX IMVI it was 1.33 µM (inactive).

On to `CC(C)(C)OC(=O)NC(Cc1ccc(O)cc1)C(=O)NC(CCCCN)C(=O)NC(Cc1ccc(O)cc1)C(=O)NC(CCCCN)C(=O)ON1C(=O)CCC1=O` (centres undefined) (Boc-YKYK-OSu; configuration not given here), for which the GI50 in the assay on K562, in the assay on SNB-75, in the assay with U-251, with NCI-H460, in the assay on M14 and in the assay with SK-MEL-2 was > 100 µM (inactive) throughout. In addition, the GI50 with SNB-19, with UACC-257, in the assay with EKVX, in the assay on SK-MEL-5, with OVCAR-8 and in the assay on UACC-62 was > 100 µM (inactive) throughout. The GI50 in the assay with SW-620, in the assay on RPMI-8226, in the assay on SN12C and in the assay on A549 was > 100 µM (inactive) throughout.

`Cc1cc2c(=O)c3ccccc3[nH]c2c(C(=O)O)c1C`: the GI50 in the assay on K562 is > 100 µM (inactive); in the assay on SNB-75, 31.6 µM (inactive); in the assay on U-251 it was > 100 µM (inactive); in the assay with NCI-H460, > 100 µM (inactive); in the assay on SF-295, > 100 µM (inactive); with SK-MEL-2, > 100 µM (inactive). For the same compound, the GI50 in the assay with SNB-19 was > 100 µM (inactive); in the assay on UACC-257, > 100 µM (inactive); in the assay on EKVX, 66.5 µM (inactive); with OVCAR-8, > 100 µM (inactive); in the assay on UACC-62, > 100 µM (inactive); with OVCAR-4 it was > 100 µM (inactive). Further, the GI50 in the assay on SW-620, in the assay on RPMI-8226, in the assay on SN12C and with A549 was > 100 µM (inactive) throughout.

Regarding `C[N+]1(CCCl)CC[N+](C)(CCCl)CC1` (centres undefined), the GI50 with K562 was > 100 µM (inactive); in the assay with SNB-75, 42.1 µM (inactive); in the assay on U-251 it was > 100 µM (inactive); with NCI-H460, > 100 µM (inactive); in the assay with M14 it was > 100 µM (inactive); with SF-295, > 100 µM (inactive). For the same compound, the GI50 in the assay on SK-MEL-2, with SNB-19, with UACC-257, in the assay with EKVX, in the assay on SK-MEL-5 and in the assay with OVCAR-8 was > 100 µM (inactive) each time. Moreover, the GI50 in the assay on UACC-62, with OVCAR-4, with SW-620, in the assay with RPMI-8226, with SN12C and with A549 was > 100 µM (inactive) in each case. Moreover, in the assay with LOX IMVI, the GI50 is > 100 µM (inactive).

Take `Cc1c2c(C#N)nccc2c(C)c2c1c1ccccc1n2Cc1ccccc1`: the GI50 in the assay on K562 is > 100 µM (inactive); with SNB-75 it was 57.8 µM (inactive); in the assay on U-251, > 100 µM (inactive); in the assay with NCI-H460 it was > 100 µM (inactive); in the assay with M14, > 100 µM (inactive); in the assay with SF-295, > 100 µM (inactive). In addition, the GI50 with SK-MEL-2 was > 100 µM (inactive); with SNB-19 it was > 100 µM (inactive); in the assay with UACC-257, > 100 µM (inactive); in the assay on EKVX, 3.79 µM (inactive); in the assay with SK-MEL-5, > 100 µM (inactive); in the assay with OVCAR-8, > 100 µM (inactive). Moreover, the GI50 in the assay with UACC-62, in the assay with OVCAR-4, with SW-620, in the assay on RPMI-8226, with SN12C and in the assay with A549 was > 100 µM (inactive) throughout. Moreover, in the assay with LOX IMVI, the GI50 was > 100 µM (inactive).

Turning to `C[C@]12CCC(=O)C(O)=C1CC[C@@H]1C2CC[C@]2(C)Nc3c(cnn3-c3ccccc3)CC12` (some centres undefined), the GI50 was 40.6 µM (inactive) in the assay on K562; > 100 µM (inactive) in the assay with SNB-75; > 100 µM (inactive) with U-251; 48.8 µM (inactive) in the assay on NCI-H460; > 100 µM (inactive) in the assay on M14; 52.7 µM (inactive) in the assay with SF-295. The GI50 in the assay with SK-MEL-2 was > 100 µM (inactive); with UACC-257, 39 µM (inactive); in the assay with EKVX, > 100 µM (inactive); in the assay on SK-MEL-5, 38.8 µM (inactive); in the assay on OVCAR-8, 64.4 µM (inactive); in the assay on UACC-62 it was 77.6 µM (inactive). Further, the GI50 in the assay on OVCAR-4 is 96.2 µM (inactive); in the assay on SW-620, > 100 µM (inactive); in the assay with RPMI-8226 it was 27.4 µM (inactive); with A549 it was > 100 µM (inactive).
